# According to patent publication US20040006061A1, “Alkoxybenzylamine” (priority 2001, published 2004):
# System: Escherichia coli NCTC 8196
# Assay: Determination of the Minimum Inhibitory Concentration (MIC value) in microtitre plates, Escherichia coli
# Type: cell-based
# Settings: Escherichia coli NCTC 8196; CASO broth, 48 hours at 37° C.; MIC = ≦20% growth (optical density at 620 nm)
# Procedure: (§1) Determination of the Minimum Inhibitory Concentration (MIC Value) in Microtitre Plates
# Casein-soybean flour-peptone broth for preparation of pre-cultures of test bacteria and yeast. […]
# Escherichia coli NCTC 8196
# (§2) The test substances are pre-dissolved in dimethyl sulfoxide (DMSO) and tested in a dilution series of 1:2.
# (§3) The bacteria are cultured overnight in CASO broth and washed off using 10 ml of 0.85% sodium chloride solution (+0.1% Triton X-100).
# (§4) All the test organisms are adjusted to an organism count of 1-5×10^6 CFU/ml using 0.85% sodium chloride solution.
# (§5) The test substances are pre-pipetted into microtitre plates in amounts of 8 μl per well.
# (§6) Pre-diluted test organism suspensions are diluted 1:100 in CASO broth.
# (§7) The test batches are incubated for 48 hours at 37° C.
# (§8) After incubation, the growth is determined on the basis of the turbidity of the test batches (optical density) at 620 nm in a microplate reader.
# (§9) The minimum inhibitory concentration (MIC value) is the concentration of substance at which there is found (compared to the growth of the control) an appreciable inhibition of growth (≦20% growth) of the test organisms.
# (§10) One microtitre plate is used for each test organism and substance concentration.
# (§11) All the substances are tested in duplicate.
row,MIC [μg/ml] EC,Structure (SMILES)
1,>120 µg/mL,CCCCCCCCCCCCOc1ccc(CN2CCCC2)cc1 [Compound of formula (83)]
2,30 µg/mL,CCCCCCCCCCCCOc1ccc(CN2CCCC2)cc1OC [Compound of formula (4)]

# Same assay, conditions: Escherichia coli, NCTC8196, 48 h, Escherichia coli NCTC 8196; CASO broth, 48 hours at 37° C.; MIC = ≦20% growth (optical density at 620 nm); read-out: MIC [μg/ml] EC
row,Structure (SMILES),MIC
1,CCCCCCOc1ccc(CN(C)CCc2ccccn2)cc1OC [Compound of formula (23)],> 120 µg/mL
2,CCCCCCCCCCCCOc1ccc(CN2CCN(C(C)=O)CC2)cc1OC [Compound of formula (14)],> 120 µg/mL
3,CCCOc1ccc(CN(C)Cc2ccccc2)cc1OC [Compound of formula (63)],> 120 µg/mL
4,CCCOc1ccc(CN(C)C)cc1OC [Compound of formula (68)],> 120 µg/mL
5,CCCCCCCCCCCCOc1ccc(CN(C)CCCCCCCCCCCC)cc1OC [Compound of formula (19)],> 120 µg/mL
6,CCCCCCCCOc1ccc(CN(C)CCc2ccccn2)cc1OC [Compound of formula (39)],> 120 µg/mL
7,CCCCCCCCCCCCOc1ccc(CN(C)CCc2ccccn2)cc1OC [Compound of formula (7)],> 120 µg/mL
8,CCCCCCOc1ccc(CN(C)Cc2ccccc2)cc1OC [Compound of formula (31)],> 120 µg/mL
9,CCCCCCCCCCCCOc1ccc(CN(C)CCCCCC)cc1OC [Compound of formula (16)],> 120 µg/mL
10,CCCOc1ccc(CN2CCOCC2)cc1OC [Compound of formula (56)],> 120 µg/mL
11,CCCOc1ccc(CN2CCCCCC2)cc1OC [Compound of formula (58)],> 120 µg/mL
12,CCCCCCCCCCCCOc1ccc(CN2CCN(CC)CC2)cc1 [Compound of formula (81)],> 120 µg/mL
13,CCCCCCCCCCCCOc1ccc(CN2CCNCC2)cc1OC [Compound of formula (21)],> 120 µg/mL
14,CCCCCCCCCCCCOc1ccc(CN(C)Cc2ccccc2)cc1OC [Compound of formula (15)],> 120 µg/mL
15,CCCOc1ccc(CN(CC)CC)cc1OC [Compound of formula (61)],> 120 µg/mL
16,CCCCCCCCCCCCOc1ccc(CN2CCCCC2)cc1 [Compound of formula (86)],> 120 µg/mL
17,CCCCCCCCCCCCOc1ccc(CN2CCN(C)CC2)cc1 [Compound of formula (76)],> 120 µg/mL

# Second part, the compound after the results:
row,MIC,Structure (SMILES)
1,> 120 µg/mL,CCCOc1ccc(CN2CCN(C(C)=O)CC2)cc1OC [Compound of formula (62)]
2,> 120 µg/mL,CCCCCCCCCCCCOc1ccc(CN2CCN(CC)CC2)cc1OC [Compound of formula (17)]
3,> 120 µg/mL,CCCCCCCCCCCCOc1ccc(CN(C)CCCC)cc1 [Compound of formula (73)]
4,> 120 µg/mL,CCCCCCOc1ccc(CN(C)Cc2ccccc2)cc1OCCCCCC [Compound of formula (95)]
5,60 µg/mL,CCCCCCCCOc1ccc(CN2CCCC2)cc1OC [Compound of formula (50)]
6,> 120 µg/mL,CCCCCCOc1ccc(CN(C)CCCC)cc1OCCCCCC [Compound of formula (89)]
7,30 µg/mL,CCCCCCCCOc1ccc(CN2CCCCC2)cc1OC [Compound of formula (54)]
8,120 µg/mL,CCCCCCCCOc1ccc(CN(CC)CC)cc1OC [Compound of formula (45)]
9,120 µg/mL,CCCCCCCCOc1ccc(CN(C)C)cc1OC [Compound of formula (52)]
10,7.5 µg/mL,CCCCCCOc1ccc(CN(C)C)cc1OCCCCCC [Compound of formula (100)]
11,120 µg/mL,CCCCCCCCCCCCOc1ccc(CN2CCN(C)CC2)cc1OC [Compound of formula (12)]
12,120 µg/mL,CCCCCCOc1ccc(CN2CCN(CC)CC2)cc1OCCCCCC [Compound of formula (97)]

# System: Staphylococcus hominis DSM 20328
# Assay: Determination of the Minimum Inhibitory Concentration (MIC value) in microtitre plates, Staphylococcus hominis
# Type: cell-based
# Settings: Staphylococcus hominis DSM 20328; CASO broth, 48 hours at 37° C.; MIC = ≦20% growth (optical density at 620 nm); listed as (83)
# Procedure: as §1
# Casein-soybean flour-peptone broth for preparation of pre-cultures of test bacteria and yeast.
# Staphylococcus hominis DSM 20328 […]
# as §2, §3, §4, §5, §6, §7, §8, §9, §10, §11
row,MIC [μg/ml] SH,Structure (SMILES)
1,>120 µg/mL,CCCCCCCCCCCCOc1ccc(CN2CCCC2)cc1 [Compound of formula (83)]

# Same assay, conditions: Staphylococcus hominis, DSM20328, 48 h, Staphylococcus hominis DSM 20328; CASO broth, 48 hours at 37° C.; MIC = ≦20% growth (optical density at 620 nm); read-out: MIC [μg/ml] SH
row,Structure (SMILES),MIC
1,CCCCCCOc1ccc(CN(C)CCc2ccccn2)cc1OC [Compound of formula (23)],60 µg/mL
2,CCCCCCCCCCCCOc1ccc(CN2CCN(C(C)=O)CC2)cc1OC [Compound of formula (14)],> 120 µg/mL
3,CCCOc1ccc(CN(C)Cc2ccccc2)cc1OC [Compound of formula (63)],> 120 µg/mL
4,CCCOc1ccc(CN(C)C)cc1OC [Compound of formula (68)],> 120 µg/mL
5,CCCCCCCCCCCCOc1ccc(CN(C)CCCCCCCCCCCC)cc1OC [Compound of formula (19)],> 120 µg/mL
6,CCCCCCCCOc1ccc(CN(C)CCc2ccccn2)cc1OC [Compound of formula (39)],120 µg/mL
7,CCCCCCCCCCCCOc1ccc(CN(C)CCc2ccccn2)cc1OC [Compound of formula (7)],60 µg/mL
8,CCCCCCOc1ccc(CN(C)Cc2ccccc2)cc1OC [Compound of formula (31)],> 120 µg/mL
9,CCCCCCCCCCCCOc1ccc(CN(C)CCCCCC)cc1OC [Compound of formula (16)],120 µg/mL
10,CCCOc1ccc(CN2CCOCC2)cc1OC [Compound of formula (56)],120 µg/mL
11,CCCOc1ccc(CN2CCCCCC2)cc1OC [Compound of formula (58)],120 µg/mL
12,CCCCCCCCCCCCOc1ccc(CN2CCN(CC)CC2)cc1 [Compound of formula (81)],15 µg/mL
13,CCCCCCCCCCCCOc1ccc(CN2CCNCC2)cc1OC [Compound of formula (21)],> 120 µg/mL
14,CCCCCCCCCCCCOc1ccc(CN(C)Cc2ccccc2)cc1OC [Compound of formula (15)],15 µg/mL
15,CCCOc1ccc(CN(CC)CC)cc1OC [Compound of formula (61)],> 120 µg/mL
16,CCCCCCCCCCCCOc1ccc(CN2CCCCC2)cc1 [Compound of formula (86)],7.5 µg/mL
17,CCCCCCCCCCCCOc1ccc(CN2CCN(C)CC2)cc1 [Compound of formula (76)],7.5 µg/mL

# The remaining lines, values ahead:
row,MIC,Structure (SMILES)
1,> 120 µg/mL,CCCOc1ccc(CN2CCN(C(C)=O)CC2)cc1OC [Compound of formula (62)]
2,7.5 µg/mL,CCCCCCCCCCCCOc1ccc(CN2CCN(CC)CC2)cc1OC [Compound of formula (17)]
3,120 µg/mL,CCCCCCCCCCCCOc1ccc(CN(C)CCCC)cc1 [Compound of formula (73)]
4,> 120 µg/mL,CCCCCCOc1ccc(CN(C)Cc2ccccc2)cc1OCCCCCC [Compound of formula (95)]
5,60 µg/mL,CCCCCCCCOc1ccc(CN2CCCC2)cc1OC [Compound of formula (50)]
6,60 µg/mL,CCCCCCOc1ccc(CN(C)CCCC)cc1OCCCCCC [Compound of formula (89)]
7,60 µg/mL,CCCCCCCCOc1ccc(CN2CCCCC2)cc1OC [Compound of formula (54)]
8,120 µg/mL,CCCCCCCCOc1ccc(CN(CC)CC)cc1OC [Compound of formula (45)]
9,120 µg/mL,CCCCCCCCOc1ccc(CN(C)C)cc1OC [Compound of formula (52)]
10,7.5 µg/mL,CCCCCCOc1ccc(CN(C)C)cc1OCCCCCC [Compound of formula (100)]
11,3.75 µg/mL,CCCCCCCCCCCCOc1ccc(CN2CCN(C)CC2)cc1OC [Compound of formula (12)]
12,30 µg/mL,CCCCCCOc1ccc(CN2CCN(CC)CC2)cc1OCCCCCC [Compound of formula (97)]
